According to PubChem BioAssay AID2788 (Southern Research Specialized Biocontainment Screening …, 2010):
The source made the active and inactive calls.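 The calls were made as follows: active = compound cutting the HIV-1 infection reporter signal by at least half at some tested dose; inactive = the rest.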

Test system: MAGI-CCR5 cells, HIV-1 Ba-L, beta-gal luminescence, 48 h
Test: HIV-1 replication inhibition, CCR5-tropic virus, dose response, MAGI-CCR5 cells, HIV-1 Ba-L, 5% and 10% serum, set 2 (AID 2788)
[1] = measured here: IC50 in 10% serum

With `Cc1ccc(S(=O)(=O)Oc2ccc(/C=C3/C(=N)N4C(=NC3=O)SN=C4S(C)(=O)=O)cc2)cc1` the IC50 was 78.5 µM and the IC50 [1] was > 100 µM.

`Cc1cc(C)cc(-n2cccc2/C=C2/C(=N)N3C(=NC2=O)SN=C3S(C)(=O)=O)c1` showed an IC50 of 45.8 µM and an IC50 [1] of 55.6 µM.

`COc1cc(C=NNc2ccc(Cl)c(C(=O)O)c2)ccc1OC(=O)c1ccccc1F` was tested, and the IC50 was > 100 µM (inactive) and the IC50 [1] was > 100 µM.

`O=c1c(=Cc2cc([N+](=O)[O-])cc([N+](=O)[O-])c2O)sc2nc3ccccc3n12` was tested, and the IC50 was 52.1 µM and the IC50 [1] was > 100 µM.

In the case of `COc1ccc(OC)c(N2C(=O)/C(=C/c3ccco3)C(=O)NC2=S)c1`, the IC50 is reported as 58.5 µM and the IC50 [1] is reported as 52.8 µM.

`COc1ccccc1NS(=O)(=O)c1cccc(-n2c(O)c(C=Nc3ccccc3C(=O)O)c3ccccc3c2=O)c1` showed an IC50 of 49 µM and an IC50 [1] of 54.9 µM.

In the case of `CS(=O)(=O)C1=NSC2=NC(=O)/C(=C\c3ccc(OS(=O)(=O)c4ccccc4)cc3)C(=N)N21`, the IC50 is reported as > 100 µM (inactive) and the IC50 [1] is reported as > 100 µM.

Work on `COc1ccc(C(=O)Oc2ccc(C=NNc3ccc(Cl)c(C(=O)O)c3)cc2OC)cc1` yielded an IC50 of 56.4 µM and an IC50 [1] of 81.4 µM.

Work on `CC(C)S(=O)(=O)C1=NSC2=NC(=O)/C(=C\c3ccc(-c4ccccc4)o3)C(=N)N21` yielded an IC50 of 21.9 µM and an IC50 [1] of 44 µM.

For `CS(=O)(=O)C1=NSC2=NC(=O)/C(=C\c3cccn3-c3ccc(Cl)cc3)C(=N)N21`, the IC50 was 63.8 µM and the IC50 [1] was > 100 µM.

`O=C(O)c1cc(NN=Cc2ccc(-c3ccccc3)cc2)ccc1Cl` was tested, and the IC50 was 94 µM and the IC50 [1] was > 100 µM.

With `CCS(=O)(=O)C1=NSC2=NC(=O)/C(=C\c3ccc(OS(=O)(=O)c4ccccc4)cc3)C(=N)N21` the IC50 was > 100 µM (inactive) and the IC50 [1] was > 100 µM.

`Cc1ccc(-n2cccc2/C=C2/C(=N)N3C(=NC2=O)SN=C3S(C)(=O)=O)cc1Cl` gave an IC50 of 47.3 µM and an IC50 [1] of 60.8 µM.

`O=C1NC(=S)N(c2ccc(F)cc2)C(=O)/C1=C/c1ccco1` showed an IC50 of 52.9 µM and an IC50 [1] of 48.7 µM.

`COc1cc(C=NNc2ccc(Cl)c(C(=O)O)c2)ccc1OC(=O)c1ccc(F)cc1` was tested, and the IC50 was 96.5 µM and the IC50 [1] was > 100 µM.

`O=C(O)c1ccccc1C(=O)N(Cc1cccc(Oc2ccc(Cl)cc2)c1)[C@H]1CCCc2ccccc21` gave an IC50 of 16.2 µM and an IC50 [1] of 38.2 µM.

For `CC(C)S(=O)(=O)C1=NSC2=NC(=O)/C(=C\c3ccc(-c4cccc(C(=O)O)c4)o3)C(=N)N21`, the IC50 was 45.6 µM and the IC50 [1] was 50.5 µM.

With `Cc1ccc(-n2c(O)c(C=Nc3ccccc3-c3n[nH]c(=S)[nH]c3=O)c3ccccc3c2=O)c(C)c1` the IC50 was 18 µM and the IC50 [1] was 23 µM.

With `CC1(C)CC(=O)C2=C(C1)c1c(ccc3ccccc13)NC2c1cc([N+](=O)[O-])cc([N+](=O)[O-])c1O` (stereo not drawn) the IC50 was 15.4 µM and the IC50 [1] was 35.6 µM.
